Patent US20180021360A1, “Combination Therapy Regimen For Treatment Of Selected HCV Genotypes” (JANSSEN PHARMACEUTICALS, INC., priority 2016, published 2018)

How the values were obtained:
[1] = molecular target: T1, BCRP (Homo sapiens, UniProt Q9UNQ0); conditions: cited from earlier work
T1 sequence (Q9UNQ0 1-655): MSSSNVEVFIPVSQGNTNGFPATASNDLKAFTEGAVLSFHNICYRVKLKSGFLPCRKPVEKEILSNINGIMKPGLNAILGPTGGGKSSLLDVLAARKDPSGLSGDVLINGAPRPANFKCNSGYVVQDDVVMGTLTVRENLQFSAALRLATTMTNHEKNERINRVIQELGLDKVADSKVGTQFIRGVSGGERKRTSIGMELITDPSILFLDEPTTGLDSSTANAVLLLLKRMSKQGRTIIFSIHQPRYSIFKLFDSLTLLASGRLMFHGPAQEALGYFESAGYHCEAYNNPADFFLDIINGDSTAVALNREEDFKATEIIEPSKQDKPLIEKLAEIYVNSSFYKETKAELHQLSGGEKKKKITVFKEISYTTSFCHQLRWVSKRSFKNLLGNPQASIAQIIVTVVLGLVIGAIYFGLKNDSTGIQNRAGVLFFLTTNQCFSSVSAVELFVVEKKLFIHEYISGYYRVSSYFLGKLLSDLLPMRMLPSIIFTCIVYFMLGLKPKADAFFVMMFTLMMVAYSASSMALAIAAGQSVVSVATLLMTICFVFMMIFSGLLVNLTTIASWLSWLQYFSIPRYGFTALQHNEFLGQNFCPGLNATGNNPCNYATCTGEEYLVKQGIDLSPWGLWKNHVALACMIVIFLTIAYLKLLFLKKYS

[2] = Phase-1 drug-drug interaction study of Odalasvir, Simeprevir and Compound (III) in healthy volunteers; type: in vivo, human
Source text: The following daily doses were employed:

[3] = molecular target: T2, OATP1B1 (Homo sapiens, UniProt Q9Y6L6); conditions: cited from earlier work
T2 sequence (Q9Y6L6 1-691): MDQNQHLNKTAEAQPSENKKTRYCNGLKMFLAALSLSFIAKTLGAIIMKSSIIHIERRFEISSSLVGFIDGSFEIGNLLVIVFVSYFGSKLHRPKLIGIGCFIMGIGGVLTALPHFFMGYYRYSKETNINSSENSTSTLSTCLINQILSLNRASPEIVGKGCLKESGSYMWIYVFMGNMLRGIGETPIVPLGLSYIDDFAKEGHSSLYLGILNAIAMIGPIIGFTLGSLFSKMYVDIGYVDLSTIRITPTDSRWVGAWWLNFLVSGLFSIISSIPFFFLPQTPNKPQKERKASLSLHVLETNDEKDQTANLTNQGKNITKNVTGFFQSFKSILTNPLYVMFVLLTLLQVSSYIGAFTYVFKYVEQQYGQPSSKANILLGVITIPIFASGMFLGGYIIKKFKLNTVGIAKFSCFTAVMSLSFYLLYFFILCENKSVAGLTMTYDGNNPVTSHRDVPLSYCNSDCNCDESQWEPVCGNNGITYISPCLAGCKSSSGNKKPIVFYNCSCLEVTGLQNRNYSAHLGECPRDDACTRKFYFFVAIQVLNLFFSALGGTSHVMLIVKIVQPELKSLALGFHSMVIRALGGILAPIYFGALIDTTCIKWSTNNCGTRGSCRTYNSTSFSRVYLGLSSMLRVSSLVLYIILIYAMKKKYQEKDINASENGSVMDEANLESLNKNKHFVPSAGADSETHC

[4] = molecular target: MRP3 (Homo sapiens, UniProt O15438); conditions: cited from earlier work
Chain of MRP3 (O15438 whole entry): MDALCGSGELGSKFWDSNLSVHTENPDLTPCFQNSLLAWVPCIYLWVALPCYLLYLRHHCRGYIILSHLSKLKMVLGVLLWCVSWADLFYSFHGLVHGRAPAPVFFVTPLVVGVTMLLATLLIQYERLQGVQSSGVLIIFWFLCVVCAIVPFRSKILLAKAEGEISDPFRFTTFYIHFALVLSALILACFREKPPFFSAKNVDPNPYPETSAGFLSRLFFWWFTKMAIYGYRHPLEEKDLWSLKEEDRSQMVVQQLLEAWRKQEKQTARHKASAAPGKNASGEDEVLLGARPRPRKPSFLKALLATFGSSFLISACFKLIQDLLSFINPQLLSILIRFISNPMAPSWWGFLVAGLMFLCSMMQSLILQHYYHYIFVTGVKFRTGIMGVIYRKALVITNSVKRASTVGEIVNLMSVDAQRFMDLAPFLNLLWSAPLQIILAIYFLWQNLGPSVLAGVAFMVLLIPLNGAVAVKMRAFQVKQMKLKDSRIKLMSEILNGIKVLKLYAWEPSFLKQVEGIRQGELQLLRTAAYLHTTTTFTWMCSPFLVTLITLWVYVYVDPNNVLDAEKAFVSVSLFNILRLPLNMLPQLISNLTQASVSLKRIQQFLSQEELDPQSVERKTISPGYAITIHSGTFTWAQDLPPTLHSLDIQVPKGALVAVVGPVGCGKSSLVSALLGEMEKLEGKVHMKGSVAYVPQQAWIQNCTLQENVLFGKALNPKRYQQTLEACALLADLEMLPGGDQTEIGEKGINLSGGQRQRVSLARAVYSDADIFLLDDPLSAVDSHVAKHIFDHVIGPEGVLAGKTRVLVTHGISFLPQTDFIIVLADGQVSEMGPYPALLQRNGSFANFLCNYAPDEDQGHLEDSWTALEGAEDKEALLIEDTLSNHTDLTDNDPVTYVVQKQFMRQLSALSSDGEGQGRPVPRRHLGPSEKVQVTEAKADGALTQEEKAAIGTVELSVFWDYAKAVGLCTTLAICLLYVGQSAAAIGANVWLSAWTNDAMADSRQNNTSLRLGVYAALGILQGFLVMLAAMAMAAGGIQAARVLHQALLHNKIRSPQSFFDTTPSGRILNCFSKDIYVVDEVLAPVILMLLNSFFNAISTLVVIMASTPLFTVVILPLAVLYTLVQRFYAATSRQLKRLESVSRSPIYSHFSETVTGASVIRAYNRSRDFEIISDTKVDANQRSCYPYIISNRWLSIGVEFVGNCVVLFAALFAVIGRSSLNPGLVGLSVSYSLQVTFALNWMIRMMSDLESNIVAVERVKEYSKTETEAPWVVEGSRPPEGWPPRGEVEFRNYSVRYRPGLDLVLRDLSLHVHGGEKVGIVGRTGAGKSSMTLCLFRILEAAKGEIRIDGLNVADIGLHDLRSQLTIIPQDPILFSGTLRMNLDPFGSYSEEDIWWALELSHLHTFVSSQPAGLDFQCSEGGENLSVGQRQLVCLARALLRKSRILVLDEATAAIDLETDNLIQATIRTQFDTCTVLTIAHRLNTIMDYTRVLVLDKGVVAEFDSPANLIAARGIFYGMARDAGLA

## COC(=O)N[C@H](C(=O)N1[C@H](c2nc3cc(-c4cc5ccc4CCc4ccc(c(-c6ccc7[nH]c([C@@H]8C[C@@H]9CCCC[C@@H]9N8C(=O)[C@@H](NC(=O)OC)C(C)C)nc7c6)c4)CC5)ccc3[nH]2)C[C@@H]2CCCC[C@@H]21)C(C)C [Odalasvir, methyl [(2,)-1-[(2S,3aS,7aS)-2-[6-[11-[2-[(2S,3aS,7aS)-1-[(2S)-2-[(methoxycarbonyl)amino]-3-methylbutanoyl]octahydro-1H-indol-2-yl]-1H-benzimidazol-6-yl]tricyclo[8.2.2.2^4,7]hexadeca-1(12),4,6,10,13,15-hexaen-5-yl]-1H-benzimidazol-2-yl]octahydro-1H-indol-1-yl]-3-methyl-1-oxobutan-2-yl]carbamate]
[1]
  in vitro inhibition of BCRP: no inhibition
[2]; DDI study results
  effect of Compound (III) on SMV or ODV: no apparent effect
  increase of exposure caused by SMV: 1.6 ×
  increase of exposure, effect of the three Compounds: 1.5 ×
[2]; human in vivo study (Example 1)
  increase of exposure on co-administration of Compounds I, II and III: 1.5 times
[2]; human, in vivo
  effect of Compound (III) on bioavailability of SMV or ODV: does not alter
  increase of exposure of ODV by SMV: 1.6 fold
[3]
  in vitro inhibition of OATP1B1: no inhibition
[4]
  in vitro inhibition of MRP3: no inhibition
